This test has as its target T1, Olfr1377 (Mus musculus, UniProt B2RQ46).
T1 sequence (B2RQ46 1-307): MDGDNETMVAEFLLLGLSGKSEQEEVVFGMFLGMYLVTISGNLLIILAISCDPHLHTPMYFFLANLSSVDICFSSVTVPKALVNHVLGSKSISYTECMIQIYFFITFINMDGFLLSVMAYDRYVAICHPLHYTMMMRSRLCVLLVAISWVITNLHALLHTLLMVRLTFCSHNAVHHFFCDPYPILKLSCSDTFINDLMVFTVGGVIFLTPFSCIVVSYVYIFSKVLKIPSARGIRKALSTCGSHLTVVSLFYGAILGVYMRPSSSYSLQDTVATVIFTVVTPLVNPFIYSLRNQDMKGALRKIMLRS
In words: GloSensor cAMP luminescence in Hana3A cells, vapor-phase odorant. In kind it is cell-based.

As a reminder, the EC50 is the concentration at which the effect is half-maximal.

In turn, `CC(=O)c1ccccc1` [acetophenone] showed a concentration giving a half-maximal response (EC50) of 161 µM.

These data come from paper PMC7263640 (Journal of visualized experiments : JoVE, 2019).
